Measurements taken from ChEMBL document CHEMBL2040771, “Discovery of a potent inhibitor of anaplastic lymphoma kinase with in vivo antitumor activity” (ACS Med Chem Lett, 2010).
pIC50: −log10 of the molar value.

What was measured:
Insulin receptor = Insulin receptor (Homo sapiens, UniProt P06213); experiment: Inhibition of insulin receptor
[1] = Oral bioavailability in rat; type: ADME, organism-based; settings: in vivo
[2] = target: ALK tyrosine kinase receptor (Homo sapiens, UniProt Q9UM73); experiment: Inhibition of ALK
ALK tyrosine kinase receptor, sequence (Q9UM73 whole entry): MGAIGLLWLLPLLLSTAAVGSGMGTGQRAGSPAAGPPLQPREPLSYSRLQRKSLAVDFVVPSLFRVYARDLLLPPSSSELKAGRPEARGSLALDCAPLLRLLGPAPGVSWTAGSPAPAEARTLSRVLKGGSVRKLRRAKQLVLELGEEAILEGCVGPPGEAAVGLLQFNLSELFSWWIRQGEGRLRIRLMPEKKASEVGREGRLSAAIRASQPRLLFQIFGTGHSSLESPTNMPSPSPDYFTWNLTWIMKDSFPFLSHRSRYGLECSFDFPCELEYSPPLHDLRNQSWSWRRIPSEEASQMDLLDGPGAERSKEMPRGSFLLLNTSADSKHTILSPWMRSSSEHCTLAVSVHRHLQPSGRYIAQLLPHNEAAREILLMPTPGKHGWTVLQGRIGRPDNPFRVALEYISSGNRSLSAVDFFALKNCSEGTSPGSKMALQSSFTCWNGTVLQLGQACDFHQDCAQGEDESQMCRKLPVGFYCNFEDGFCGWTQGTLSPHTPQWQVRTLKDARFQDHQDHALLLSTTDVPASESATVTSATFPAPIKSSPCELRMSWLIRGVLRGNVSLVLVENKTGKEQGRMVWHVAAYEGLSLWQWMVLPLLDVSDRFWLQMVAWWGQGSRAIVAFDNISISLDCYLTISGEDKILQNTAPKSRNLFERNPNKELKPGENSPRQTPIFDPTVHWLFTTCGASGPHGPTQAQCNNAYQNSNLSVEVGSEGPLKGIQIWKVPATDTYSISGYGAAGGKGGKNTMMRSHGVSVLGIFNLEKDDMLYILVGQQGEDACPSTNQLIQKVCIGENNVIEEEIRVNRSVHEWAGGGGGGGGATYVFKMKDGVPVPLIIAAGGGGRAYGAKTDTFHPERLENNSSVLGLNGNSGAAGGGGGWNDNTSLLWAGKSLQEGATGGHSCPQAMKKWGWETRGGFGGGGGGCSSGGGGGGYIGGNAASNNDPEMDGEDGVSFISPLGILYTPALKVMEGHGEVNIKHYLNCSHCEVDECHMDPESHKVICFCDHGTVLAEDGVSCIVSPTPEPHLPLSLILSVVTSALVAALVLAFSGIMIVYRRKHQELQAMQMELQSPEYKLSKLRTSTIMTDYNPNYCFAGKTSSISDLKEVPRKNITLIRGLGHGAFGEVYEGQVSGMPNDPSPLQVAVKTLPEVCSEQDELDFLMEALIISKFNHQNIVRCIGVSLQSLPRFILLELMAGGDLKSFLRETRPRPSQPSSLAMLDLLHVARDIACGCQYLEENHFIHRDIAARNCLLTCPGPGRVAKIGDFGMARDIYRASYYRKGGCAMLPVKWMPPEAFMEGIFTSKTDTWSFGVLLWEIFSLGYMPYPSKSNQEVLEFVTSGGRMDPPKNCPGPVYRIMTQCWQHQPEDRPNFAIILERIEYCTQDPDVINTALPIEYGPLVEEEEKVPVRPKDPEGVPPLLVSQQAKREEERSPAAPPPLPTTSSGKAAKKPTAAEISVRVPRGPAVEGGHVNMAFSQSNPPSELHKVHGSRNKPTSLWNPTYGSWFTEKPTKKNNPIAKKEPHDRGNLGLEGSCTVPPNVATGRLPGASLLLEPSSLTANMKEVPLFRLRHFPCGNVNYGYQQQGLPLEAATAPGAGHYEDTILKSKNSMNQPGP

Insulin receptor, sequence (P06213 28-758 limits assumed): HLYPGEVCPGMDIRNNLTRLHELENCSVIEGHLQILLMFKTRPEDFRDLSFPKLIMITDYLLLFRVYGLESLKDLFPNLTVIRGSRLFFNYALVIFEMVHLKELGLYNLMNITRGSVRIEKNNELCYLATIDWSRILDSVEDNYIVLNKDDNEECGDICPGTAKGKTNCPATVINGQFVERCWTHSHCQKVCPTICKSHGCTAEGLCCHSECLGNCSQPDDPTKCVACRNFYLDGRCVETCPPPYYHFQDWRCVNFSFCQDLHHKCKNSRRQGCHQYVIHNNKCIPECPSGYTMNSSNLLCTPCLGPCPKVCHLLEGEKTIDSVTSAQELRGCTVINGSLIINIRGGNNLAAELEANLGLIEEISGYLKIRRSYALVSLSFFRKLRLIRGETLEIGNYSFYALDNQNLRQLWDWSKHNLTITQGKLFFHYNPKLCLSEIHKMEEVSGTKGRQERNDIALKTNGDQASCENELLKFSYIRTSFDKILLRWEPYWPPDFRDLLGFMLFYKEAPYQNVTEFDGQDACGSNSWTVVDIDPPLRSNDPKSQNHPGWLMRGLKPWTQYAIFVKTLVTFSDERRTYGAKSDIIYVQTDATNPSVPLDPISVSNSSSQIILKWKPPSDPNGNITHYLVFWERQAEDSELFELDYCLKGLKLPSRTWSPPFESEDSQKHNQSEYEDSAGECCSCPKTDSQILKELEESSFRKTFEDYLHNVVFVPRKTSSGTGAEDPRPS
Insulin receptor, sequence (P06213 763-1382 limits assumed): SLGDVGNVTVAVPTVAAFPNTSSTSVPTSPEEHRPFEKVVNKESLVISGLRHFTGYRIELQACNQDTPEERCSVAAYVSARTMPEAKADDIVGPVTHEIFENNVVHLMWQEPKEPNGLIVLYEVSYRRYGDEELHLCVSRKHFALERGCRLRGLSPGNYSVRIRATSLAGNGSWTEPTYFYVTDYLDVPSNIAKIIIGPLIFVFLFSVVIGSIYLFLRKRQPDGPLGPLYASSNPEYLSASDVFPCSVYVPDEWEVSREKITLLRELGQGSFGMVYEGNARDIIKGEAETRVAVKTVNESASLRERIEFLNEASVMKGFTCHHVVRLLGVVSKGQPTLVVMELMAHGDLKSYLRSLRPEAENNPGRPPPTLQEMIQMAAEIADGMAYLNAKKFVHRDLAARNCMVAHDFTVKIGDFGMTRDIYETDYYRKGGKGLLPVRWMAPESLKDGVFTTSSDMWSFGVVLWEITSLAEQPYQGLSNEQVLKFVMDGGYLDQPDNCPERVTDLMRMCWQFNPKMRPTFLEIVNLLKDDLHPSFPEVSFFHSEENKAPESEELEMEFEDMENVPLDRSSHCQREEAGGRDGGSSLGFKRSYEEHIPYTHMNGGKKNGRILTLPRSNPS

Row | pIC50 (Insulin receptor) | bioavailability [1] [%] | pIC50 [2] | Structure (SMILES)
1 | 7.43 |  |  | CCN1C(=O)CCCc2cc(Nc3ncc(Cl)c(Nc4ccccc4S(=O)(=O)N(C)C)n3)c(OC)cc21
2 |  | 9 |  | CNC(=O)c1ccccc1Nc1nc(Nc2ccc3c(c2)CCCC(=O)N3C)ncc1Cl
3 | 7.92 |  |  | CCN1C(=O)CCCc2cc(Nc3ncc(Cl)c(Nc4ccccc4S(=O)(=O)C(C)C)n3)c(OC)cc21
4 | 7.47 |  |  | CCN1C(=O)CCCc2cc(Nc3ncc(Cl)c(Nc4ccccc4C(=O)NC)n3)c(OC)cc21
5 | 6.50 |  |  | CN1C(=O)CCCc2cc(Nc3ncc(Cl)c(N[C@@H]4CCCC[C@@H]4C(N)=O)n3)ccc21 (racemic)
6 | 6.61 |  | 6.25 | CNC(=O)c1cccc(Nc2nc(Nc3ccc4c(c3)CCCC(=O)N4C)ncc2Cl)c1
7 | 6.67 |  |  | CCN1C(=O)CCCc2c1ccc(Nc1ncc(Cl)c(Nc3ccccc3C(=O)NC)n1)c2OC
8 | 7.49 |  |  | CCN1C(=O)CCCc2c1ccc(Nc1ncc(Cl)c(Nc3ccccc3S(=O)(=O)C(C)C)n1)c2OC
9 | 8.00 | 11 |  | CNS(=O)(=O)c1ccccc1Nc1nc(Nc2ccc3c(c2)CCCC(=O)N3C)ncc1Cl
10 | 7.15 |  |  | CCN1C(=O)CCCc2c1ccc(Nc1ncc(Cl)c(Nc3ccccc3S(=O)(=O)N(C)C)n1)c2OC
11 | 7.04 | 13 |  | CN1C(=O)CCCc2cc(Nc3ncc(Cl)c(N[C@H]4[C@@H](C(N)=O)[C@@H]5C=C[C@H]4C5)n3)ccc21 (racemic)
12 | 5.70 |  |  | CN1C(=O)CCCc2cc(Nc3ncc(Cl)c(N[C@@H]4CCCC[C@H]4C(N)=O)n3)ccc21 (racemic)
13 | 7.05 |  |  | CCN1C(=O)CCCc2cc(Nc3ncc(Cl)c(N[C@H]4[C@@H](C(N)=O)[C@@H]5C=C[C@H]4C5)n3)c(OC)cc21
